Results as given in ChEMBL document CHEMBL1130055, “Discovery of a novel class of selective non-peptide antagonists for the human neurokinin-3 receptor. 1. Identification of the 4-quinolinecarboxamide framework” (J Med Chem, 1997).
pKi: −log10 of the molar value.

Target: T1, Substance-K receptor (Homo sapiens, UniProt P21452)
T1 sequence (P21452 whole entry): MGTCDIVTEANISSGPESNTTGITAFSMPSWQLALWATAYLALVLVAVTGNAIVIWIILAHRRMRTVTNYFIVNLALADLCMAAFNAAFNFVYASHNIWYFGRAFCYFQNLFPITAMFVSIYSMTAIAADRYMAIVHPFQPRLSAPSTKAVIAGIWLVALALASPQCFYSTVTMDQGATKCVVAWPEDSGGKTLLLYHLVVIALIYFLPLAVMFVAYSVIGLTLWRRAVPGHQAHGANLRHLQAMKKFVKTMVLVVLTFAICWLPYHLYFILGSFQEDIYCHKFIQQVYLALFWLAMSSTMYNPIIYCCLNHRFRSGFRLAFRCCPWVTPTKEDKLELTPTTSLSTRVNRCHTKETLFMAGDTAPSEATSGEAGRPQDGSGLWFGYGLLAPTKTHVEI
Experiment: Inhibition of [125I]neurokinin A (NKA) binding in human Tachykinin receptor 2 of chinese hamster ovary (hNK-2-CHO) cell membranes.

| SMILES | pKi |
| --- | --- |
| COC(=O)[C@@H](NC(=O)c1cc(-c2ccccc2)nc2ccccc12)c1ccccc1 | 5.08 |
| COC(=O)[C@H](NC(=O)c1cc(-c2ccccc2)nc2ccccc12)c1ccccc1 | 5.91 |
